Experimental data taken from patent US11807646B2, “4-hydroxypiperidine derivatives and their use as inhibitors of ubiquitin specific protease 19 (USP19)” (ALMAC DISCOVERY LIMITED, priority 2018, dated 2023).

Target: USP19 (Homo sapiens (Human), UniProt O94966)
Assay: USP19 fluorescence polarization (FP) homogeneous assay with Ubiquitin-Lys-TAMRA substrate
Format: biochemical
Settings: full-length USP19 2.5 nM, Ub substrate 500 nM, 30 min pre-incubation at rt; average of at least two duplicate experiments
Procedure: Unless otherwise stated, all other reagents were purchased from Sigma. Enzymatic reactions were conducted in black flat bottom polystyrene 384-well plates (Nunc) and 30 μL total volume. […] Inhibitors were stored as 10 mM DMSO stocks in an inert environment (low humidity, dark, low oxygen, room temperature) using the Storage Pod System and serial dilutions were prepared in buffer just prior to the assay (from 200 μM to 2 pM, 8-18 data point curve). Following incubation at rt for 30 min, the enzymatic reactions were initiated by dispensing the Ub substrate (500 nM, 10 μL). FP was measured every 15 min over a period of 90 min (within the linear range of the assay) using a Synergy 4 plate reader (BioTek) exciting at 530 nm and measuring the amount of parallel and perpendicular light at 575 nm. The FP signal was subsequently normalized to the no compound control.

Sequence of USP19 (O94966 whole entry): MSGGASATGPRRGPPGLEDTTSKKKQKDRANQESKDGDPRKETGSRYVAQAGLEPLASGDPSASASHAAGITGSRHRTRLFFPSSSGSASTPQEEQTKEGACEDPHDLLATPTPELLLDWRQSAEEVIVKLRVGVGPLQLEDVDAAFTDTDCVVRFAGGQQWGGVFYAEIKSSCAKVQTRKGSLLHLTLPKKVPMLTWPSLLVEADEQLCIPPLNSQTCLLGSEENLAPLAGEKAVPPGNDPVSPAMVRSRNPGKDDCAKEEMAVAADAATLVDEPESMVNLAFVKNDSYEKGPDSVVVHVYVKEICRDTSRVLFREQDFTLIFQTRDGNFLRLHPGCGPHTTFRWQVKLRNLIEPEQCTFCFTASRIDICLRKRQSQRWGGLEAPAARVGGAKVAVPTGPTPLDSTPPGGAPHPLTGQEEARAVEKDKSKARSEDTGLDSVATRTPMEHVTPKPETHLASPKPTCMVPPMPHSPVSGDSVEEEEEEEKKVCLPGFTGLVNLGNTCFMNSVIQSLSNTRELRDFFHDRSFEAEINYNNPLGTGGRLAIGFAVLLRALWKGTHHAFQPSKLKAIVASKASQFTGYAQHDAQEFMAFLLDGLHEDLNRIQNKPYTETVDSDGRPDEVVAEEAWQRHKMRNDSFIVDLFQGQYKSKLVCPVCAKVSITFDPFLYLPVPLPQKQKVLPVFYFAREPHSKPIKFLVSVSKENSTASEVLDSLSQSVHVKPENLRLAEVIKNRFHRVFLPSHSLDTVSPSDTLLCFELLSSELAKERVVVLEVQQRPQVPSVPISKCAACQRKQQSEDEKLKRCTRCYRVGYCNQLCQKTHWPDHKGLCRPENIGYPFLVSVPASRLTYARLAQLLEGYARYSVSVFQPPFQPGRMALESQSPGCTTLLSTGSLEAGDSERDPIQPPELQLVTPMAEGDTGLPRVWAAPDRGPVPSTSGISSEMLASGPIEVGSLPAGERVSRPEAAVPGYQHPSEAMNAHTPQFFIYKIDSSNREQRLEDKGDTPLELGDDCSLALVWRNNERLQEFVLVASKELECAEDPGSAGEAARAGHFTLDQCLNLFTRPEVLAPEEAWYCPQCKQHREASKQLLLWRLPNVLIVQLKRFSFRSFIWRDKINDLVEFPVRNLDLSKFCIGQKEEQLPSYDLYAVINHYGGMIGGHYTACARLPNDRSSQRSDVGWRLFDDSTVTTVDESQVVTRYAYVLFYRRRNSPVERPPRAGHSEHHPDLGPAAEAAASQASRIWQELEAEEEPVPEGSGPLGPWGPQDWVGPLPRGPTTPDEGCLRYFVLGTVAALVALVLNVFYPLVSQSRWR

| Compound | IC50 [µM] |
| --- | --- |
| CC(CC(=O)N1CCC(O)(CN2CC(Cc3ccccc3)CC2=O)C(C)(C)C1)c1ccccc1 (centres unmarked) [Example 44, 4-Benzyl-1-((4-hydroxy-3,3-dimethyl-1-(3-phenylbutanoyl)piperidin-4-yl)methyl)pyrrolidin-2-one] | 50 to 250 |
| C[C@H](CC1CCCCC1)C(=O)N1CC[C@](O)(Cn2cc(N=S(C)(C)=O)c(-c3ccccc3F)cc2=O)C(C)(C)C1 [Example 65, 1-(((R)-1-((R)-3-Cyclohexyl-2-methylpropanoyl)-4-hydroxy-3,3-dimethylpiperidin-4-yl)methyl)-5-((dimethyl(oxo)-λ^6-sulfaneylidene)amino)-4-(2-fluorophenyl)pyridin-2(1H)-one] | 50 to 250 |
| C[C@H](CC1CCCCC1)C(=O)N1CC[C@@](O)(Cn2cc(N=S(C)(C)=O)c(-c3ccccc3F)cc2=O)C(C)(C)C1 [Example 66, 1-(((S)-1-((R)-3-Cyclohexyl-2-methylpropanoyl)-4-hydroxy-3,3-dimethylpiperidin-4-yl)methyl)-5-((dimethyl(oxo)-λ^6-sulfaneylidene)amino)-4-(2-fluorophenyl)pyridin-2(1H)-one] | 0.5 to 5 |
| O=C1COCCN1CC1(O)CCN(C(=O)N2CCOC[C@H]2c2ccccc2)CC12CCCC2 (stereo partly drawn) [Example 117, 4-((10-Hydroxy-7-((R)-3-phenylmorpholine-4-carbonyl)-7-azaspiro[4.5]decan-10-yl)methyl)morpholin-3-one] | 0.5 to 5 |
| C[C@H](CC(F)(F)F)C(=O)N1CCC(O)(Cn2ccc3ccc(F)cc3c2=O)C2(CCCC2)C1 (stereo partly drawn) [Example 135, 7-Fluoro-2-((10-hydroxy-7-((R)-4,4,4-trifluoro-2-methylbutanoyl)-7-azaspiro[4.5]decan-10-yl)methyl)isoquinolin-1(2H)-one] | 5 to 50 |
